One molecule from article PMC5618421, “Anti-Inflammatory Effects of Curvularin-Type Metabolites from a Marine-Derived Fungal Strain Penicillium sp. SF-5859 in Lipopolysaccharide-Induced RAW264.7 Macrophages” (Marine Drugs, 2017) can be followed below.

Common to all, as to assay type: cell-based
The test system of assay [1] is NO production in LPS-treated RAW 264.7 macrophages. Nature of the assay: Inhibition of NO production (nitrite, Griess reaction) in LPS-treated RAW264.7 macrophages. The settings on record: Mus musculus; RAW264.7 macrophages pre-treated 3 h with compound, then LPS (1 μg/mL) 24 h; Griess reaction. As to the method: All isolated compounds (1–9) were evaluated for their anti-inflammatory effects. […] NO is a small molecule which is an intracellular mediator produced in various immune cells. It plays a pivotal role in the physiological and pathological condition of inflammatory symptoms. PGE2 can also regulate the immune and inflammatory responses. In this study, RAW264.7 macrophages were pre-treated for 3 h in the medium containing non-toxic concentrations (Table 2) of each compound (1–9), and then LPS (1 μg/mL) was treated for 24 h. According to the LPS stimulation of RAW264.7 macrophages, production of NO and PGE2 was increased, and the effects of all compounds on the production level of NO and PGE2 were evaluated by the Griess reaction and a PGE2 kit, respectively. […] To evaluate the impact of phenol and resorcinol groups in the curvularin-type metabolites for the anti-inflammatory activity, 5-O-methyl and 5,7,-di-O-methyl derivatives of curvularin (3a and 3b, respectively), as well as 5-O-acetyl and 5,7,-di-O-acetyl derivatives of curvularin (3c and 3d, respectively), were prepared, and the structures of 3a–3d were identified by comparison the ^1H and ^13C-NMR spectroscopic data with those of curvularin (3), and confirmed by their HRESIMS. […] The position of the methoxy group in 3a was confirmed by HMBC correlation between methoxy signal at δH 3.77 (3H, s, 5-OCH3) and δC 161.8 (C-5). The NOESY cross-peaks between acetyl proton ([…]) with H-2, H-4, and H-16 of 3c were used to identify the position of the acetyl group in 3c. […] Further systematic investigations are needed to clarify the structure activity relationship associated with the modification of the aliphatic part of the molecule.
As an indicator of NO production in RAW264.7 macrophages, production of nitrite, a stable end-product of NO oxidation, was estimated. Briefly, the concentration of nitrite in the conditioned media was determined by a method based on the Griess reaction, and the details of the assay were described previously.

The next assay relates to COX-2. Put plainly: Western blot of COX-2 protein expression in LPS-stimulated RAW264.7 macrophages. The settings on record: pre-treated 3 h, LPS 24 h. The text has this:
Therefore, we further tested whether inhibitory effects of 8 against NO and PGE2 productions are correlated with the protein expression of pro-inflammatory enzymes (i.e., iNOS and COX-2, respectively), which are known to catalyze the production of NO and PGEs in LPS-stimulated cells. […] Upon the stimulation by LPS, macrophages can also trigger the production of pro-inflammatory cytokines such as TNF-α, and ILs. The overproduction of these cytokines contributes to the pathogenesis of inflammatory diseases. Thus, we further evaluated the effects of 8 on the mRNA expression of pro-inflammatory cytokines in the LPS-induced cells. The cells were pre-treated with indicated concentration for 3 h, followed by LPS stimulation (1 μg/mL) for 6 h. The mRNA expression of pro-inflammatory cytokines was determined by RT-qPCR.
Figure 2 Effects of 8 on protein expression levels of iNOS and COX-2 (a), and mRNA expression levels of IL-1β (Il1b) (b), IL-6 (Il6) (c), and TNF-α (Tnf) (d) in RAW264.7 macrophages. The cells were pre-treated for 3 h with the indicated concentrations of 8 and stimulated for 24 h (a), and 6 h (b–d) with LPS (1 μg/mL). The measurement of western blot analysis and RNA quantification for Il1b, Il6, and Tnf expression were performed as described in the Materials and Methods. […]
The proteins of iNOS, COX-2, NF-κB, and MAPKs were measured by Western blot analysis. […]

The subject of another assay is IκB-α. Nature of the assay: Western blot of cytosolic IκBα phosphorylation and degradation in LPS-treated RAW264.7 macrophages. Conditions: pre-treated 3 h, LPS (1 μg/mL) 1 h. As to the method:
(§1) Figure 3 Effects of 8 on NF-κB activation (nuclear-p50 and p65) (a), IκBα phosphorylation and degradation (b), and the DNA binding activity of NF-κB (c) in LPS-treated RAW264.7 macrophages. Cells were pre-treated with the indicated concentrations of 8 for 3 h and stimulated with LPS (1 μg/mL) for 1 h. Western blot analysis (IκBα and p-IκBα in the cytoplasm and NF-κB in the nucleus) was performed as described in the Materials and Methods. Representative blots from three independent experiments are shown. A commercially-available NF-κB ELISA kit (Active Motif) was used to test the nuclear extracts and determine the degree of NF-κB binding. The data shown represent the mean values of three independent experiments. * p < 0.05 compared with the group treated with LPS.
(§2) The proteins of iNOS, COX-2, NF-κB, and MAPKs were measured by Western blot analysis. The details of procedures for Western blot analysis were described previously.
The proteins of nuclear NF-κB (p50 and p65) and cytosolic IκBα (p-IκBα and IκBα) were obtained by using cytosolic and nuclear fractions. The details of this procedure have been described previously.

A further assay deals with NF-κB. Nature of the assay: DNA binding activity of NF-κB in nuclear extracts (TransAM ELISA kit). Conditions: pre-treated 3 h, LPS (1 μg/mL) 1 h. On the procedure:
as §1
TransAM kit (Active Motif, Carlsbad, CA, USA) was used to estimate the DNA-binding activity of NF-κB in the nuclear extract according to the manufacturer’s instructions as described previously.

Another assay concerns p38. Put plainly: Western blot of p38 phosphorylation in LPS-treated RAW264.7 macrophages. The settings on record: pre-treated 3 h, LPS (1 μg/mL) 30 min. As to the method: (§3) Figure 4 Effects of 8 on p38 (a), JNK (b), and ERK (c) phosphorylation in RAW264.7 macrophages. Cells were pre-treated with the indicated concentrations of 8 for 3 h and stimulated for 30 min with LPS (1 μg/mL). Cell extracts were subjected to Western blotting with antibodies specific for phosphorylated-p38 (p-p38), phosphorylated JNK (p-JNK), or phosphorylated ERK1/2 (p-ERK). Membranes were stripped and re-probed to measure the total abundance of each MAPK as a control measurement. Representative blots from three independent experiments are shown.
as §2

Assay [2] deals with c-Jun N-terminal kinase (JNK). Nature of the assay: Western blot of JNK phosphorylation in LPS-treated RAW264.7 macrophages. Conditions: pre-treated 3 h, LPS (1 μg/mL) 30 min. On the procedure: as §3, §2
Assay [3] concerns extracellular signal-regulated kinase (ERK). Put plainly: Western blot of ERK phosphorylation in LPS-treated RAW264.7 macrophages. The settings on record: pre-treated 3 h, LPS (1 μg/mL) 30 min. As to the method: as §3, §2

Each structure is given as a SMILES string.

`C[C@H]1CCC/C=C/C(=O)c2c(O)cc(O)cc2CC(=O)O1` [Compound 8, (10E,15S)-10,11-dehydrocurvularin]: the half-maximal inhibitory concentration (IC50) in assay [1] worked out at 1900 ± 300 nM. For the same molecule, the COX-2 protein expression entry in the assay with COX-2 is “attenuation of the excessive protein expression of iNOS and COX-2 in a dose-dependent manner”. Moreover, in the assay on IκB-α, the “degradation of IκB-α” value is listed as “blocked the degradation of IκB-α in a concentration-dependent manner” and the “phosphorylation of IκB-α” value is listed as “attenuated this phosphorylation of IκB-α”. Further, the “LPS-induced DNA binding activity of NF-κB” value in the assay on NF-κB is on record as “declined”. The “LPS-induced phosphorylation of p38” value with p38 is “did not suppress these phosphorylations”. Further, the “LPS-induced phosphorylation of JNK” value in assay [2] is “did not suppress these phosphorylations”. Moreover, the “LPS-induced phosphorylation of ERK” value in assay [3] was “did not suppress these phosphorylations”.
